Values quoted from earlier work, collected in patent US20140073699A1, “Combination Therapies for the Treatment of Obesity” (Metabolous Pharmaceuticals, Inc., priority 2009, published 2014).

Conditions: literature studies
For `CCN[C@@H](C)Cc1cccc(C(F)(F)F)c1` [dexfenfluramine], the “weight loss of body weight for drug compared with placebo” value (“weight loss … compared with placebo” for short) is listed as “about 5%”. In the case of `CCCCCCCCCCC[C@@H](C[C@@H]1OC(=O)[C@H]1CCCCCC)OC(=O)[C@H](CC(C)C)NC=O` [orlistat], the “weight loss … compared with placebo” value is listed as “about 5%”. In the case of `CC(C)CC(N(C)C)C1(c2ccc(Cl)cc2)CCC1` (stereo not drawn) [sibutramine], the “weight loss … compared with placebo” value is listed as “about 5%”.
